Laboratory results reported in patent US9260397B2, “Salts comprising aryl-alkyl-substituted imidazolium and triazolium cations and the use thereof” (TECHNISCHE UNIVERSITAET DRESDEN, priority 2008, dated 2016).

Key:
[1] = Thermal stability (decomposition point); format: physicochemical
[2] = Solubility in ether or THF; format: physicochemical
Procedure: To 80 mg 1-mesityl-3-tetradecyl imidazolium tetrafluoroborate (Example 97) 4 ml diethylether or 2 ml tetrahydrofuran are added.

Decomposition point [1] [°C]	solubility in tetrahydrofuran ([2]; 80 mg in 2 ml tetrahydrofuran)	solubility in diethylether ([2]; 80 mg in 4 ml diethylether)	Compound
440	–	–	1-mesityl-3-propylimidazolium bis(trifluoromethylsulfone)imide [Example 69]
440	–	–	1-mesityl-3-pentylimidazolium bis(trifluoromethylsulfone)imide [Example 71]
440	–	–	1-hexyl-3-mesitylimidazolium bis(trifluoromethylsulfone)imide [Example 72]
440	–	–	1-butyl-3-mesitylimidazolium bis(trifluoromethylsulfone)imide [Example 70]
440	–	–	1-heptyl-3-mesitylimidazolium bis(trifluoromethylsulfone)imide [Example 73]
–	dissolved easily	not dissolved	CCCCCCCCCCCCCC[n+]1ccn(-c2c(C)cc(C)cc2C)c1.F[B-](F)(F)F [1-mesityl-3-tetradecyl imidazolium tetrafluoroborate]
